19 compounds from patent US20110201629A1, “CYCLOHEXYL AMIDE DERIVATIVES AS CRF RECEPTOR ANTAGONISTS” (priority 2010, published 2011) can be followed below.

Structures can show the parent of a compound that is named as a salt.

This assay has as its target T1, CRF-1 (UniProt P34998).
T1 sequence (P34998 1-415): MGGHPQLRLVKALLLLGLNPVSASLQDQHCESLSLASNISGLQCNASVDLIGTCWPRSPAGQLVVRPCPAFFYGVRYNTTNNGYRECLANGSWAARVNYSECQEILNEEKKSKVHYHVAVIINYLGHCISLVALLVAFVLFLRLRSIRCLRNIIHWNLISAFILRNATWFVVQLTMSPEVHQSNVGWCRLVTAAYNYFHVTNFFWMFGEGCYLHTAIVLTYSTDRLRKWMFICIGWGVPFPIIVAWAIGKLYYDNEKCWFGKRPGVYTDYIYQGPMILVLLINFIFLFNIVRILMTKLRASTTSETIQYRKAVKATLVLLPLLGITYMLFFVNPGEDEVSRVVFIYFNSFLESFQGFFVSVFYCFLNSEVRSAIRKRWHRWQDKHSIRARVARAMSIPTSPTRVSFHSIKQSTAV
Nature of the assay: CRF-1 receptor antagonism, HTRF cAMP assay in CHO cells. The note with it: Biological data Table 1; inhibition of CRF induced cAMP response in CHO cells, EC50 concentration of CRF. The assay is classed as cell-based, human. How it is done: The CRF-1 and CRF-2 receptor antagonistic activity of the agents of the invention has been determined in vitro in the following assay:
Chinese hamster ovary (CHO) cells expressing either the human or rat recombinant CRF-1 or human CRF-2α (Chen et al, Proc Natl Acad Sci USA 90, 8967-8971, 1993; Liaw et al, Endocrinology 137, 72-77, 1996) are propagated in Dulbecco's modified Eagle medium supplemented with 10% foetal calf serum, non-essential amino acids, 100 U/ml penicillin, 100 mg/l streptomycin and 1 g/l geneticin. CHO cells expressing the rat CRF-2β receptor (Wu et al, Endocrinology 148, 1675-1687, 2007) are propagated in HAM's-F12 Glutamax supplemented with 10% foetal calf serum, 100 IU/ml penicillin, 100 mg/l streptomycin, 600 μg/ml hygromycin, 10 μg/ml blasticidin and induced with 1 μg/ml of tetracyclin for 24 hours prior to experimentation. For cyclic AMP determinations the Homogeneous Time-Resolved Fluoresce (HTRF) cAMP dynamic 2 kit (Cisbio International, France) was used as per manufacturers' instructions. CHO cells, previously cryopreserved at 3×10^6 viable cells per ml of cell recovery media (Cat no. 12648-010, Invitrogen), were thawed, centrifuged for 7 mins at 1200 rpm and resuspended in serum free media to give a concentration of 0.5×10^6 cells per/ml. Compounds of the invention, prepared in DMSO, and subsequently diluted 50 fold in assay buffer (1× Hanks balanced salt solution, 0.2% (w/v) bovine serum albumin, 1.7 mM isobutylmethylxanthine and 10 mM Hepes, pH7.4) were then added onto the 384 well low volume black assay plate (Corning Inc, US, Cat. 3676). 2000 cells/well were then added to the assay plate further diluting the compound 2 fold and then the plate was incubated for 15 mins at room temperature. Following incubation, buffer containing a 5 times final concentration of agonist, typically r/h CRF is added to the plate and incubated for 30 min at room temperature. Finally, d2 dye labeled cAMP and cryptate labeled anti-cAMP antibody, both made in lysis buffer, are added to the plate followed by a settling period of 1 hour at room temperature. During the settling period cAMP produced by the cells competes with the d2 labelled cAMP for the anti-cAMP cryptate. The plate is read on the Pherastar (BMG, Germany). Increasing levels of endogenous cAMP produced by cells can be followed by a decrease of FRET fluorescent signal and vice versa. Values represented by a change in arbitrary fluorescence units are converted into cAMP concentrations by use of a standard curve, the reagents for which are supplied with the kit. Antagonist dose response curves (1 nM-31.6 μM) are constructed and tested in the presence of an EC50 concentration of CRF relevant to the receptor (hCRF-1=3 nM, hCRF-2α=2 nM, rCRF-1=1 nM and rCRF-2β=0.1 nM). IC50 values of antagonists are calculated by fitting the percent inhibition of CRF induced cAMP response by increasing concentrations of the antagonists. The fit is performed using the nonlinear logistic function of the Activitybase software package v 5.4.5.27 (IDBS, UK).
(In general: Time-resolved FRET reads energy transfer from a long-lived donor to a nearby acceptor.)
Turning to `O=C(N[C@H]1CC[C@H](CN2C(=O)Cc3ccc(Cl)cc32)CC1)c1cc(C(F)(F)F)ccc1Cl` [Example 1.1, Trans-2-Chloro-N-[4-(6-chloro-2-oxo-2,3-dihydro-indol-1-ylmethyl)-cyclohexyl]-5-trifluoromethyl-benzamide], half-maximal inhibition (IC50) required 65 nM. To `O=C(N[C@H]1CC[C@H](CN2C(=O)C(F)(F)c3ccc(Cl)cc32)CC1)c1cc(C(F)(F)F)ccc1Cl` [Example 2.1, Trans-2-chloro-N-[4-(6-chloro-3,3-difluoro-2-oxo-2,3-dihydro-indol-1-ylmethyl)-cyclohexyl]-5-trifluoromethyl-benzamide] belongs 149 nM.

Turning to `Cc1ncc(Cl)cc1C(=O)N[C@H]1CC[C@H](CN2C(=O)C(C)(C)c3cccnc32)CC1` [Example 2.3, Trans-5-chloro-N-[4-(3,3-dimethyl-2-oxo-2,3-dihydro-pyrrolo[2,3-b]pyridin-1-ylmethyl)-cyclohexyl]-2-methyl-nicotinamide], the IC50 was 242 nM.

The compound `O=C(N[C@H]1CC[C@H](CN2C(=O)Cc3cccnc32)CC1)c1cc(C(F)(F)F)ccc1Cl` [Example 2.4, Trans-2-chloro-N-[4-(2-oxo-2,3-dihydro-pyrrolo[2,3-b]pyridin-1-ylmethyl)-cyclohexyl]-5-trifluoromethyl-benzamide] yielded an IC50 of 900 nM. The figure for `O=C(N[C@H]1CC[C@H](CN2C(=O)C3(CC3)c3cc(F)ccc32)CC1)c1cc(C(F)(F)F)ccc1Cl` [Example 2.5, Trans-2-chloro-N-{-4-((5′-fluoro-2′-oxospiro[cyclopropane-1,3′-indoline]-1′-yl)methyl)cyclohexyl}-5-(trifluoromethyl)benzamide] is 9 nM; for `COc1ccc2c(c1)C(C)(C)C(=O)N2C[C@H]1CC[C@H](NC(=O)c2cc(C(F)(F)F)ccc2Cl)CC1` [Example 2.7, Trans-2-Chloro-N-[4-(5-methoxy-3,3-dimethyl-2-oxo-2,3-dihydro-indol-1-ylmethyl)-cyclohexyl]-5-trifluoromethyl-benzamide] it is 166 nM; for `COc1cc2c(cn1)C(C)(C)C(=O)N2C[C@H]1CC[C@H](NC(=O)c2cc(C(F)(F)F)ccc2Cl)CC1` [Example 2.8, Trans-2-Chloro-N-[4-(6-methoxy-3,3-dimethyl-2-oxo-2,3-dihydro-pyrrolo[3,2-c]pyridin-1-ylmethyl)-cyclohexyl]-5-trifluoromethyl-benzamide] it is 347 nM. Turning to `C[C@]1(F)C(=O)N(C[C@H]2CC[C@H](NC(=O)c3cc(C(F)(F)F)ccc3Cl)CC2)c2ccccc21` [Example 2.9, Trans-2-Chloro-N-[4-((R)-3-fluoro-3-methyl-2-oxo-2,3-dihydro-indol-1-ylmethyl)-cyclohexyl]-5-trifluoromethyl-benzamide], half-maximal inhibition (IC50) required 16 nM. To `C[C@@]1(F)C(=O)N(C[C@H]2CC[C@H](NC(=O)c3cc(C(F)(F)F)ccc3Cl)CC2)c2ccccc21` [Example 2.10, Trans-2-Chloro-N-[4-((S)-3-fluoro-3-methyl-2-oxo-2,3-dihydro-indol-1-ylmethyl)-cyclohexyl]-5-trifluoromethyl-benzamide] belongs 201 nM; to `CCn1c(=O)n(C[C@H]2CC[C@H](NC(=O)c3cc(Cl)cnc3C)CC2)c2ccncc21` [Example 2.42, Trans-5-Chloro-N-[4-(3-ethyl-2-oxo-2,3-dihydro-imidazo[4,5-c]pyridin-1-ylmethyl)-cyclohexyl]-2-methyl-nicotinamide], 275 nM. Compound `Cc1ncc(Cl)cc1C(=O)N[C@H]1CC[C@H](Cn2c(=O)n(C)c3nccc(C)c32)CC1` [Example 2.43, Trans-5-Chloro-N-[4-(3,7-dimethyl-2-oxo-2,3-dihydro-imidazo[4,5-b]pyridin-1-ylmethyl)-cyclohexyl]-2-methyl-nicotinamide] came in with an IC50 of 416 nM. The figure for `Cc1ncc(C(F)(F)F)cc1C(=O)N[C@H]1CC[C@H](CN2C(=O)C(C)(C)c3ccccc32)CC1` [Example 2.52, Trans-N-[4-(3,3-Dimethyl-2-oxo-2,3-dihydro-indol-1-ylmethyl)-cyclohexyl]-2-methyl-5-trifluoromethyl-nicotinamide] is 612 nM; for `O=C(N[C@H]1CC[C@H](CN2C(=O)Cc3cc(Cl)ccc32)CC1)c1cc(C(F)(F)F)ccc1Cl` [Example 3.1, Trans-2-Chloro-N-[4-(5-chloro-2-oxo-2,3-dihydro-indol-1-ylmethyl)-cyclohexyl]-5-trifluoromethyl-benzamide] it is 205 nM; for `CC1(C)C(=O)N(C[C@H]2CC[C@H](NC(=O)c3cc(C(F)(F)F)ccc3Cl)CC2)c2ccc(F)cc21` [Example 3.3, Trans-2-Chloro-N-[4-(5-fluoro-3,3-dimethyl-2-oxo-2,3-dihydro-indol-1-ylmethyl)-cyclohexyl]-5-trifluoromethyl-benzamide] it is 28 nM. In turn, `Cn1c(=O)n(C[C@H]2CC[C@H](NC(=O)c3cc(C(F)(F)F)ccc3Cl)CC2)c2ncccc21` [Example 3.6, Trans-2-Chloro-N-[4-(1-methyl-2-oxo-1,2-dihydro-imidazo[4,5-b]pyridin-3-ylmethyl)-cyclohexyl]-5-trifluoromethyl-benzamide] returned an IC50 of 145 nM. To `O=C(N[C@H]1CC[C@H](Cn2c(=O)[nH]c3ccccc32)CC1)c1cc(C(F)(F)F)ccc1Cl` [Example 3.7, Trans-2-Chloro-N-[4-(2-oxo-2,3-dihydro-bcnzoimidazol-1-ylmethyl)-cyclohexyl]-5-trifluoromethyl-benzamide] belongs 91 nM; to `Cn1c(=O)n(C[C@H]2CC[C@H](NC(=O)c3cc(C(F)(F)F)ccc3Cl)CC2)c2ccccc21` [Example 3.8, Trans-2-Chloro-N-[4-(3-methyl-2-oxo-2,3-dihydro-benzoimidazol-1-ylmethyl)-cyclohexyl]-5-trifluoromethyl-benzamide], 37 nM; to `Cn1c(=O)n(C[C@H]2CC[C@H](NC(=O)c3cc(Cl)ccc3Cl)CC2)c2ccccc21` [Example 4.2, Trans-2,5-Dichloro-N-[4-(3-methyl-2-oxo-2,3-dihydro-benzoimidazol-1-ylmethyl)-cyclohexyl]-benzamide trifluoroacetate], 118 nM. To `CC1(C)C(=O)N(C[C@H]2CC[C@H](NC(=O)c3cc(Cl)ccc3Cl)CC2)c2ccccc21` [Example 5.2, Trans-2,5-Dichloro-N-[4-(3,3-dimethyl-2-oxo-2,3-dihydro-indol-1-ylmethyl)-cyclohexyl]-benzamide] belongs 126 nM.

As usually defined, the IC50 is the concentration that inhibits the measured activity by half. Read a low IC50 as greater potency in that assay.
